Assay results reported in patent publication US20230010299A1, “HETEROCYCLIC TRPML1 AGONISTS” (LIBRA THERAPEUTICS, INC., priority 2019, published 2023).

Tests used:
TRPML1 [1] = target: T1, TRPML1 (Homo sapiens, UniProt Q9GZU1); test: Cellular TRPML1 assay (FLIPR TETRA, GCaMP6f calcium read-out); assay type: cell-based; conditions: HEK T-REx/GCaMP6f/TRPML1 cells; Ca2+ response over 300 s, normalized to ML-SA1 50 μM; Ca2+ free or Optimem condition not given; read-out: Ec50 (Activity of TRPML1 agonists)
T1 construct: expressed in transfected cells
T1 sequence (Q9GZU1 whole entry): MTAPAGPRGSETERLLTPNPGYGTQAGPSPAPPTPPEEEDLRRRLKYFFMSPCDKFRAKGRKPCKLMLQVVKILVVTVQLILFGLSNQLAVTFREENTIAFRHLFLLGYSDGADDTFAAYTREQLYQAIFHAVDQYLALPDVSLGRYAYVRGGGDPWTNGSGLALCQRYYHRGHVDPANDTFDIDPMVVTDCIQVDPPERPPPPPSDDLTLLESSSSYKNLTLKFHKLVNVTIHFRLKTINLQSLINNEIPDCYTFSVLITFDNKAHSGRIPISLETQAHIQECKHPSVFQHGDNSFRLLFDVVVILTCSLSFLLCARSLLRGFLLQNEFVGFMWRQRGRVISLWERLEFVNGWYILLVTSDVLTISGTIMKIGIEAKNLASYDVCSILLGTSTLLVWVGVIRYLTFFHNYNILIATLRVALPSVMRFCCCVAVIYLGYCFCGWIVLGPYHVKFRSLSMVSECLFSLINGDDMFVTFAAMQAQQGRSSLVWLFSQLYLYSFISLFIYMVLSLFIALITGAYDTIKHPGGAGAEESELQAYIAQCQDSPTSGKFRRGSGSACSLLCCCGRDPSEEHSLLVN
Method in brief: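 HEK T-REx cells stably expressing TRPML1 and GCaMP6f, assayed 24 h after seeding in Ca2+-free Tyrode's (pH 7.4) or Opti-MEM. Compounds injected on FLIPR Tetra (0.5% DMSO) in dose-response from 100 μM (1:2) or 50 μM (1:3.16); fluorescence kinetics 300 s, referenced to 50 μM ML-SA1 stimulator control.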

TRPML1 [2] = target: T1, TRPML1; test: TRPML1 manual patch clamp on isolated enlarged endolysosomes; assay type: cell-based; conditions: whole-endolysosome recording, HEK T-REx/GcaMP6f/TRPML1 cells, luminal pH 4.6
Method: TRPML1 —Manual Patch Clamp
Endolysosomal electrophysiology was performed in isolated enlarged endolysosomes using a modified patch-clamp method (Dong et al., 2010). HEK T-REx/GcaMP6f/TRPML1 cells were treated with […] PIKfive inhibitor overnight. Whole-endolysosome recordings were performed on manually isolated enlarged endolysosomes (Dong et al., 2010). In brief, a patch pipette was pressed against a cell and quickly pulled away to slice the cell membrane. Enlarged endolysosomes were released into a dish and a gigaseal between the patch pipette and the enlarged endolysosome was obtained. Negative pressure or voltage steps of several hundred millivolts with millisecond duration were then applied to break into the vacuolar membrane.
Bath (internal/cytoplasmic) solution contained 140 mM K-gluconate, 4 mM NaCl, 1 mM EGTA, 2 mM MgCl2, 0.39 mM CaCl2), 20 mM HEPES (pH was adjusted with KOH to 7.2). The pipette (luminal) solution was standard extracellular solution (modified Tyrode's: 145 mM NaCl, 5 mM KCl, 2 mM CaCl2), 1 mM MgCl2, 10 mM HEPES, 10 mM MES, 10 mM glucose; the pH was adjusted with NaOH to pH 4.6).
Dilution from stock were prepared just before the experiments in the extracellular solution (0.1% final DMSO concentration). DMSO solution was obtained from AppliChem (cat. A3672).
All bath solutions were applied via a perfusion system that allowed us to achieve complete solution exchange within a few seconds.
Data were collected using an HEKA EPC 10 patch-clamp amplifier, and PatchMaster v2x73.5 software (HEKA Elektronik). Whole-endolysosome currents were digitized at 20 kHz. All experiments were conducted at room temperature, and all recordings were analyzed with pClamp 10.7 (Molecular Devices) and GraphPad Prism (V8.00).
TRPML1 current was evoked using the voltage protocol illustrated in FIG. 3, applied every 5 sec. (10 ms at −80 mV; 500 ms ramp from −120 to +40 mV; 10 ms at −80 mV); in the absence (vehicle period, i.e. 0.1% DMSO) and in the presence of the compound (agonist) under investigation.

Row | SMILES | EC50 (TRPML1 [1]) [nM] | Lysosomal Patch-Clamp Current fold increase Mean ± SEM (n) (TRPML1 [2]; 2.0 uM compound) | Lysosomal Patch-Clamp Current fold increase Mean ± SEM (n) (TRPML1 [2]; 30.0 uM compound)
1 | CN(C)S(=O)(=O)c1ccc(S(=O)(=O)Nc2ccccc2N2CCC(C(=O)OC(C)(C)C)CC2)cc1 [Example 76, f-butyl 1-{2-[4-(dimethylsulfamoyl)benzenesulfonamido]phenyl}piperidine-4-carboxylate] | 1300 |  | 
2 | CN(C)S(=O)(=O)c1ccc(S(=O)(=O)Nc2ccccc2N2CCC(Oc3cnccn3)CC2)cc1 [Example 77, N1,N1-dimethyl-N4-{2-[4-(pyrazin-2-yloxy)piperidin-1-yl]phenyl} benzene-1,4-disulfonamide] | 1700 |  | 
3 | CN(C)S(=O)(=O)c1ccc(S(=O)(=O)Nc2ccccc2N2CCCCC2)cc1 [Example 6, N1,N1-dimethyl-N4-[2-(piperidin-1-yl)phenyl]benzene-1,4-disulfonamide] | 1700 | 3.3 ± 0.67 (3) | 
4 | CN(C)S(=O)(=O)c1ccc(S(=O)(=O)NC2CCCCC2N2CCC(Oc3ccccc3)CC2)cc1 (racemic) [Example 57, N1,N1-dimethyl-N4-[2-(4-phenoxypiperidin-1-yl)cyclohexyl]benzene-1,4-disulfonamide] | 3000 | 18.0 ± 8.5 (3) | 
5 | CN(C)S(=O)(=O)c1ccc(S(=O)(=O)Nc2ccccc2N2CCC(Oc3ccccn3)CC2)cc1 [Example 75, N1,N1-dimethyl-N4-{2-[4-(pyridin-2-yloxy)piperidin-1-yl]phenyl}benzene-1,4-disulfonamide] | 1600 |  | 
6 | CN(C)S(=O)(=O)c1ccc(S(=O)(=O)Nc2ccccc2N2CCN(C(=O)OC(C)(C)C)CC2)cc1 [Example 13, tert-butyl 4-{2-[4-(dimethylsulfamoyl)benzenesulfonamido]phenyl}piperazine-1-carboxylate] | 2100 |  | 27.5 ± 10.8 (2)
